Measurements: patent US20080280879A1, “SUBSTITUTED HETEROCYCLIC DERIVATIVES AND THEIR PHARMACEUTICAL USE AND COMPOSITIONS” (priority 2007, published 2008)
Values after ≈ are worked out from the molar mass of the structure shown.

What was measured:
Type in all cases: cell-based, Staphylococcus aureus
Staph aureus 1095 MRSA = assay: MIC, microtiter broth dilution (CLSI M7-A7), Assay 1, Table 12 column A, no serum; conditions: Assay 1, no serum; for MIC: Staphylococcus aureus, MRSA
Procedure, shortened: (§1)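 Broth microdilution in microtiter trays per CLSI M7-A7, interpreted per M100-S16; MIC (μg/ml) is the lowest concentration preventing visible growth. Serum condition used Mueller-Hinton Broth with 50% pooled inactivated human serum. Repeated runs reported as geometric mean.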

Staph aureus 1146 [1] = assay: MIC, microtiter broth dilution (CLSI M7-A7), Assay 1, Table 12 column B, no serum; conditions: for MIC, column B: Staph aureus 1146, Assay 1, no serum; for MIC: Staphylococcus aureus, 1146, Staph aureus 1146, Assay 1, no serum
Procedure, shortened: as §1

Staph aureus 1146 [2] = assay: MIC in Mueller-Hinton Broth with 50% pooled inactivated human serum, Assay 1, Table 12; conditions: for MIC, column C: Staph aureus 1146, Assay 1, 50% human serum; for MIC: Staphylococcus aureus, 1146, Staph aureus 1146, Assay 1, 50% human serum, read-out: MIC, column C
Procedure, shortened: as §1

Staph aureus 2811 = assay: MIC, microtiter broth dilution (CLSI M7-A7), Assay 1, Table 12 column D, no serum; conditions: for MIC, column D: Staph aureus 2811, Assay 1, no serum; for MIC: Staphylococcus aureus, 2811, Staph aureus 2811, Assay 1, no serum
Procedure, shortened: as §1

Staph aureus 2812 = assay: MIC, microtiter broth dilution (CLSI M7-A7), Assay 1, Table 12 column E, no serum; conditions: for MIC, column E: Staph aureus 2812, Assay 1, no serum; for MIC: Staphylococcus aureus, 2812, Staph aureus 2812, Assay 1, no serum
Procedure, shortened: as §1

Row | Structure (SMILES) | MIC, column A (Staph aureus 1095 MRSA) | MIC, column B (Staph aureus 1146 [1]) | MIC, column C (Staph aureus 1146 [2]) | MIC, column D (Staph aureus 2811) | MIC, column E (Staph aureus 2812) | MIC (Staph aureus 1095 MRSA) | MIC (Staph aureus 1146 [1]) | MIC (Staph aureus 1146 [2]) | MIC (Staph aureus 2811) | MIC (Staph aureus 2812)
1 | COc1ccc2ncc(Cl)c(C(O)CC[C@@H]3CCN(C4CC(c5ccccc5)C4)C[C@@H]3C(=O)O)c2c1 (stereo partly drawn) [Example 212, (3R,4R)-4-[3-(3-chloro-6-methoxyquinolin-4-yl)-3-hydroxypropyl]-1-(3-phenylcyclobutyl)piperidine-3-carboxylic acid] | <0.0625 µg/mL | <0.0625 µg/mL | 2.00 µg/mL (≈ 3.93 µM) | <0.0625 µg/mL | <0.0625 µg/mL | – | – | – | – | –
2 | COc1ccc2ncc(Cl)c(C(O)CCC3(C(=O)O)CCN(C4CC(c5ccccc5)C4)CC3)c2c1 (stereo not drawn) [Example 141, 4-(3-(3-chloro-6-methoxyquinolin-4-yl)-3-hydroxypropyl)-1-(3-phenylcyclobutyl)piperidine-4-carboxylic acid] | – | – | – | – | – | 2 µg/mL (≈ 3.93 µM) | 1 µg/mL (≈ 1.96 µM) | 32 µg/mL (≈ 62.9 µM) | 0.5 µg/mL (≈ 0.982 µM) | 1 µg/mL (≈ 1.96 µM)
3 | COc1ccc2nccc([C@@H](O)CC[C@@H]3CCN(C4CC(c5cc(C(F)(F)F)ccc5F)C4)C[C@@H]3C(=O)O)c2c1 (stereo partly drawn) [Example 62, (3R,4R)-1-{3-[2-fluoro-5-(trifluoromethyl)phenyl]cyclobutyl}-4-[(3S)-3-hydroxy-3-(6-methoxyquinolin-4-yl)propyl]piperidine-3-carboxylic acid] | – | – | – | – | – | 4 µg/mL (≈ 7.14 µM) | 2 µg/mL (≈ 3.57 µM) | 64 µg/mL (≈ 114 µM) | 1 µg/mL (≈ 1.78 µM) | 2 µg/mL (≈ 3.57 µM)
4 | COc1ccc2ncc(Cl)c([C@@H](O)CNC3(C(=O)O)CCCN(C4CC(c5ccccc5)C4)CC3)c2c1 (single isomer, unassigned) [Example 148] | 4 µg/mL (≈ 7.63 µM) | 1 µg/mL (≈ 1.91 µM) | 4 µg/mL (≈ 7.63 µM) | 1 µg/mL (≈ 1.91 µM) | 1 µg/mL (≈ 1.91 µM) | – | – | – | – | –
5 | COc1ccc2nccc([C@@H](O)CC[C@@H]3CCN(C4CC(c5c(F)cccc5F)C4(C)C)C[C@@H]3C(=O)O)c2c1 (stereo partly drawn) [Example 200, (3R,4R)-1-[3-(2,6-difluorophenyl)-2,2-dimethylcyclobutyl]-4-[(3S)-3-hydroxy-3-(6-methoxyquinolin-4-yl)propyl]piperidine-3-carboxylic acid] | – | – | – | – | – | 32 µg/mL (≈ 59.4 µM) | 8 µg/mL (≈ 14.9 µM) | > 64 µg/mL | 8 µg/mL (≈ 14.9 µM) | 8 µg/mL (≈ 14.9 µM)
6 | COC(=O)[C@H]1CN(C2CC(c3cc(C)no3)C2)CC[C@H]1CCC(O)c1ccnc2ccc(OC)cc12 (stereo partly drawn) [Example 105, methyl (3R,4R)-4-[3-hydroxy-3-(6-methoxyquinolin-4-yl)propyl]-1-[3-(3-methylisoxazol-5-yl)cyclobutyl]piperidine-3-carboxylate] | – | – | – | – | – | 1 µg/mL (≈ 2.03 µM) | 2 µg/mL (≈ 4.05 µM) | > 64 µg/mL | 2 µg/mL (≈ 4.05 µM) | 2 µg/mL (≈ 4.05 µM)
7 | COc1ccc2nccc(C(O)CC[C@@H]3CCN(C4CN(C5CCOC5)C4)C[C@@H]3C(=O)O)c2c1 (stereo partly drawn) [Example 129, (3R,4R)-4-[3-hydroxy-3-(6-methoxyquinolin-4-yl)propyl]-1-[1-(tetrahydrofuran-3-yl)azetidin-3-yl] piperidine-3-carboxylic acid] | – | – | – | – | – | > 64 µg/mL | > 64 µg/mL | > 64 µg/mL | > 64 µg/mL | > 64 µg/mL
8 | COc1ccc2nccc(C(O)CC[C@@H]3CCN(C4CC(Oc5ccccn5)C4)C[C@@H]3C(=O)O)c2c1 (stereo partly drawn) [Example 104, (3R,4R)-4-[3-hydroxy-3-(6-methoxyquinolin-4-yl)propyl]-1-[3-(pyridin-2-yloxy)cyclobutyl]piperidine-3-carboxylic acid] | – | – | – | – | – | > 64 µg/mL | > 64 µg/mL | > 64 µg/mL | > 64 µg/mL | > 64 µg/mL
9 | COc1ccc2nccc([C@@H](O)CC[C@@H]3CCN(C4CC(C5CCCC5)C4)C[C@@H]3C(=O)O)c2c1 (stereo partly drawn) [Example 48, (3R,4R)-1-(3-cyclopentylcyclobutyl)-4-[(3S)-3-hydroxy-3-(6-methoxyquinolin-4-yl)propyl]piperidine-3-carboxylic acid] | 0.25 µg/mL (≈ 0.536 µM) | 0.125 µg/mL (≈ 0.268 µM) | 1 µg/mL (≈ 2.14 µM) | 0.125 µg/mL (≈ 0.268 µM) | 0.125 µg/mL (≈ 0.268 µM) | – | – | – | – | –
10 | COc1ccc2nccc(CCCC3(C(=O)O)CCN(C4CC(c5ccccc5)C4)CC3)c2c1 (stereo not drawn) [Example 93, 4-[3-(6-methoxyquinolin-4-yl)propyl]-1-(3-phenylcyclobutyl)piperidine-4-carboxylic acid] | – | – | – | – | – | 2 µg/mL (≈ 4.36 µM) | 2 µg/mL (≈ 4.36 µM) | > 64 µg/mL | 2 µg/mL (≈ 4.36 µM) | 1 µg/mL (≈ 2.18 µM)
11 | COc1ccc2nccc(C(O)CC[C@@H]3CCN(C4CC(c5ccccc5)C4)CC3(C)C(=O)O)c2c1 (stereo partly drawn) [Example 12, (4R)-4-[3-hydroxy-3-(6-methoxyquinolin-4-yl)propyl]-3-methyl-1-(3-phenylcyclobutyl) piperidine-3-carboxylic acid] | – | – | 8 µg/mL (≈ 16.4 µM) | – | – | 4 µg/mL (≈ 8.19 µM) | 2 µg/mL (≈ 4.09 µM) | – | 2 µg/mL (≈ 4.09 µM) | 2 µg/mL (≈ 4.09 µM)
12 | COc1ccc2nccc([C@@H](O)CNC3CCN([C@H]4C[C@@H](c5ccccc5)C4)CC3C(=O)O)c2c1 (stereo partly drawn) [Example 123, 4-{[(2R)-2-hydroxy-2-(6-methoxyquinolin-4-yl)ethyl]amino}-1-(cis-3-phenylcyclobutyl)piperidine-3-carboxylic acid] | – | – | – | – | – | 32 µg/mL (≈ 67.3 µM) | 16 µg/mL (≈ 33.6 µM) | 32 µg/mL (≈ 67.3 µM) | 16 µg/mL (≈ 33.6 µM) | 32 µg/mL (≈ 67.3 µM)
13 | COc1ccc2ncc(Cl)c(CCCC3(C(=O)O)CCN(C4CCC(c5cc(F)ccc5F)C4)C3)c2c1 (stereo not drawn) [Example 199, 3-[3-(3-chloro-6-methoxyquinolin-4-yl)propyl]-1-[3-(2,5-difluorophenyl)cyclopentyl]pyrrolidine-3-carboxylic acid] | – | – | – | – | – | 0.125 µg/mL (≈ 0.236 µM) | < 0.0625 µg/mL | > 64 µg/mL | < 0.0625 µg/mL | < 0.0625 µg/mL
14 | COc1ccc2ncc(F)c(CCCC3(C(=O)O)CCN(C4CC(c5ccccc5)C4)CC3)c2n1 (stereo not drawn) [Example 106, 4-(3-(3-fluoro-6-methoxy-1,5-naphthyridin-4-yl)propyl)-1-(3-phenylcyclobutyl)piperidine-4-carboxylic acid] | – | – | – | – | – | ≤ 0.0625 µg/mL | ≤ 0.0625 µg/mL | 32 µg/mL (≈ 67 µM) | ≤ 0.0625 µg/mL | ≤ 0.0625 µg/mL
15 | COc1ccc2nccc([C@@H](O)CC[C@@H]3CCN(C4CC(c5c(F)ccc(F)c5F)C4)C[C@@H]3C(=O)O)c2c1 (stereo partly drawn) [Example 195, (3R,4R)-4-[(3S)-3-hydroxy-3-(6-methoxyquinolin-4-yl)propyl]-1-[3-(2,3,6-trifluorophenyl)cyclobutyl] piperidine-3-carboxylic acid] | – | – | – | – | – | < 0.0625 µg/mL | < 0.0625 µg/mL | 1 µg/mL (≈ 1.89 µM) | < 0.0625 µg/mL | < 0.0625 µg/mL
16 | COc1ccc2nccc([C@H](O)CC[C@@H]3CCN(C4CC(c5cccc(F)c5)C4)C[C@@H]3C(=O)O)c2c1 (stereo partly drawn) [Example 91, (3R,4R)-1-[3-(3-fluorophenyl)cyclobutyl]-4-[(3R)-3-hydroxy-3-(6-methoxyquinolin-4-yl)propyl]piperidine-3-carboxylic acid] | – | – | – | – | – | 0.5 µg/mL (≈ 1.02 µM) | 0.25 µg/mL (≈ 0.508 µM) | 8 µg/mL (≈ 16.2 µM) | 0.25 µg/mL (≈ 0.508 µM) | 0.25 µg/mL (≈ 0.508 µM)
17 | COc1ccc2nccc(C(O)CC[C@@H]3CCN(C4CC(c5ccc(O)c(OC)c5)C4)C[C@@H]3C(=O)O)c2c1 (stereo partly drawn) [Example 33, (3R,4R)-1-[3-(4-hydroxy-3-methoxyphenyl)cyclobutyl]-4-[3-hydroxy-3-(6-methoxyquinolin-4-yl)propyl]piperidine-3-carboxylic acid] | – | – | – | – | – | > 64 µg/mL | > 64 µg/mL | > 64 µg/mL | > 64 µg/mL | > 64 µg/mL
18 | COc1ccc2ncc(F)c(C(O)CC[C@@H]3CCN(C4CC(c5c(F)cccc5F)C4)C[C@@H]3C(=O)O)c2n1 (stereo partly drawn) [Example 182, (3R,4R)-1-[3-(2,6-difluorophenyl)cyclobutyl]-4-[3-(3-fluoro-6-methoxy-1,5-naphthyridin-4-yl)-3-hydroxypropyl]piperidine-3-carboxylic acid] | – | – | 1.00 µg/mL (≈ 1.89 µM) | – | – | < 0.0625 µg/mL | < 0.0625 µg/mL | – | < 0.0625 µg/mL | < 0.0625 µg/mL
19 | COc1ccc2ncc(Cl)c(C(O)CC[C@@H]3CCN(C4CC(c5c(F)cccc5F)C4)C[C@@H]3C(=O)O)c2c1 (stereo partly drawn) [Example 213, (3R,4R)-4-[3-(3-chloro-6-methoxyquinolin-4-yl)-3-hydroxypropyl]-1-[3-(2,6-difluorophenyl)cyclobutyl]piperidine-3-carboxylic acid] | <0.0625 µg/mL | <0.0625 µg/mL | 0.500 µg/mL (≈ 0.917 µM) | <0.0625 µg/mL | <0.0625 µg/mL | – | – | – | – | –
20 | COc1ccc2ncc(F)c(C(O)CC[C@@H]3CCN(C4CC(c5c(F)cccc5F)C4)C[C@@H]3C(=O)O)c2n1 (stereo partly drawn) [Example 189, (3R,4R)-1-[3-(2,6-difluorophenyl)cyclobutyl]-4-[3-(3-fluoro-6-methoxy-1,5-naphthyridin-4-yl)-3-hydroxypropyl]piperidine-3-carboxylic acid] | <0.0625 µg/mL | <0.0625 µg/mL | 0.125 µg/mL (≈ 0.236 µM) | <0.0625 µg/mL | <0.0625 µg/mL | – | – | – | – | –
21 | COc1ccc2nccc(C(O)CC[C@@H]3CCN(C4CC(c5nc(C(C)(C)C)no5)C4)C[C@@H]3C(=O)O)c2c1 (stereo partly drawn) [Example 164, (3R,4R)-1-[3-(3-tert-butyl-1,2,4-oxadiazol-5-yl)cyclobutyl]-4-[3-hydroxy-3-(6-methoxyquinolin-4-yl)propyl]piperidine-3-carboxylic acid] | – | – | – | – | – | > 64 µg/mL | 64 µg/mL (≈ 122 µM) | > 64 µg/mL | 64 µg/mL (≈ 122 µM) | 64 µg/mL (≈ 122 µM)
